In brackets after ≈: the same amount, converted by molar mass. Like-named read-outs stand apart in the source and are kept apart here.
Key:
S. aureus FDA209P = experiment: Antibacterial activity (MIC), S. aureus FDA209P; format: cell-based, Staphylococcus aureus
Protocol: (§1) According to the standard method of Japan Society of Chemotherapy [CHEMOTHERAPY, vol. 29, No. 1, pages 76-79 (1981)], a loopful of a cell suspension obtained by culturing in Mueller Hinton broth (mfd. by Difco) at 37° C. for 20 hours and adjusted to a concentration of 10^6 cells/plate (10^8 cells/ml) was inoculated into a Mueller Hinton agar medium (mfd. by Difco) containing the test compound, followed by incubation at 37° C. for 20 hours. […]

in vivo = settings: mouse, intravenous, ddy strain mice, solution in 0.1 N aqueous sodium hydroxide, read-out: median lethal dose (LD50)
Protocol: Each test compound was intravenously administered to groups of 4 ddy strain mice (body weight: 30±1 g) each, whereby its acute toxicity was investigated. In this case, the compound was administered in the form of a solution prepared by dissolving the compound in a 0.1 N aqueous sodium hydroxide solution.

S. aureus F-597 = experiment: Antibacterial activity (MIC), S. aureus F-597 (methicillin-resistant); format: cell-based; settings: Mueller Hinton agar, 10^6 cells/plate, 37° C.
Protocol: (§2) According to the standard method of Japan Society of Chemotherapy [CHEMOTHERAPY, vol. 29, No. 1, pages 76-79 (1981)], a loopful of a cell suspension obtained by culturing in Mueller Hinton broth (mfd. by Difco) at 37° C. for 20 hours and adjusted to a concentration of 10^6 cells/plate (10^8 cells/ml) was inoculated into a Mueller Hinton agar medium (mfd. by Difco) containing the test compound, followed by incubation at 37° C. for 20 hours. […] In Table 1, *1 to *4 denote the following strains:
3: methicillin-resistant S. aureus

E. coli NIHJ JC-2 = experiment: Antibacterial activity (MIC), E. coli NIHJ JC-2; format: cell-based, Escherichia coli
Protocol: as §1

S. aureus F-137 = experiment: Antibacterial activity (MIC), S. aureus F-137 (β-lactamase-producing); format: cell-based; settings: 10^6 cells/plate, 37° C., 20 hours
Protocol: as §2
2: β-lactamase-producing S. aureus

[1] = Staphylococcus aureus, S. aureus FDA209P, Mueller Hinton agar, 10^6 cells/plate, 37° C., 20 hours, read-out: MIC
[2] = Staphylococcus aureus, F597, 20 h, read-out: MIC
[3] = Escherichia coli, NIHJJC2, E. coli NIHJ JC-2, Mueller Hinton agar, 10^6 cells/plate, 37° C., 20 hours, read-out: MIC
[4] = Staphylococcus aureus, F137, Mueller Hinton agar, read-out: MIC

Row | MIC (S. aureus FDA209P; [1]) | MIC (S. aureus F-597; [2]) | MIC (E. coli NIHJ JC-2; [3]) | MIC (S. aureus F-137; [4]) | Structure (SMILES) | LD50 (in vivo) | MIC (S. aureus F-597; 20 hours) | MIC (S. aureus FDA209P; S. aureus FDA209P, Mueller Hinton agar, 10^6 cells/plate, 37° C., 20 hours) | MIC (E. coli NIHJ JC-2; E. coli NIHJ JC-2, Mueller Hinton agar, 10^6 cells/plate, 37° C., 20 hours) | MIC (S. aureus F-137; Mueller Hinton agar) | MIC (S. aureus FDA209P; Staphylococcus aureus, FDA209P, 20 h) | MIC (E. coli NIHJ JC-2; Escherichia coli, NIHJJC2, 20 h)
1 |  |  |  |  | CC1NCc2cc(-c3ccc4c(=O)c(C(=O)O)cn(C5CC5)c4c3OC(F)F)ccc21 (single isomer, unassigned; (-)) [i, (-)-1-Cyclopropyl-8-difluoromethoxy-7-(1-methyliso-indolin-5-yl)-1,4-dihydro-4-oxoquinoline-3-carboxylic acid] | ≥ 200 mg/kg | ≤ 0.05 µg/mL | ≤ 0.05 µg/mL | ≤ 0.05 µg/mL | ≤ 0.05 µg/mL |  | 
2 | ≤ 0.05 µg/mL | 0.1 µg/mL (≈ 0.277 µM) | ≤ 0.05 µg/mL | ≤ 0.05 µg/mL | Cc1c(-c2ccc3c(c2)CNC3)ccc2c(=O)c(C(=O)O)cn(C3CC3)c12 [a, 1-Cyclopropyl-7-(isoindolin-5-yl)-8-methyl-1,4-dihydro-4-oxoquinoline-3-carboxylic acid] |  |  |  |  |  |  | 
3 | ≤ 0.05 µg/mL | ≤ 0.05 µg/mL | ≤ 0.05 µg/mL | ≤ 0.05 µg/mL | Cc1c(-c2cc(F)c3c(c2)CNC3)ccc2c(=O)c(C(=O)O)cn(C3CC3)c12 [b, 1-Cyclopropyl-7-(7-fluoroisoindolin-5-yl)-8-methyl-1,4-dihydro-4-oxoquinoline-3-carboxylic acid] |  |  |  |  |  |  | 
4 | ≤ 0.05 µg/mL | 0.1 µg/mL (≈ 0.266 µM) | ≤ 0.05 µg/mL | ≤ 0.05 µg/mL | COc1c(-c2ccc3c(c2)CNC3)ccc2c(=O)c(C(=O)O)cn(C3CC3)c12 [c, 1-Cyclopropyl-7-(isoindolin-5-yl)-8-methoxy-1,4-dihydro-4-oxoquinoline-3-carboxylic acid] |  |  |  |  |  |  | 
5 | ≤ 0.05 µg/mL | ≤ 0.05 µg/mL | ≤ 0.05 µg/mL | ≤ 0.05 µg/mL | COc1c(-c2cc(F)c3c(c2)CNC3)ccc2c(=O)c(C(=O)O)cn(C3CC3)c12 [d, 1-Cyclopropyl-7-(7-fluoroisoindolin-5-yl)-8-methoxy-1,4-dihydro-4-oxoquinoline-3-carboxylic acid] |  |  |  |  |  |  | 
6 | ≤ 0.05 µg/mL | ≤ 0.05 µg/mL | ≤ 0.05 µg/mL | ≤ 0.05 µg/mL | O=C(O)c1cn(C2CC2)c2c(OC(F)F)c(-c3cc(F)c4c(c3)CNC4)ccc2c1=O [f, 1-Cyclopropyl-8-difluoromethoxy-7-(7-fluoroiso-indolin-5-yl)-1,4-dihydro-4-oxoquinoline-3-carboxylic acid] |  |  |  |  |  |  | 
7 |  |  |  |  | O=C(O)c1cn(C2CC2)c2cc(N3CCNCC3)c(F)cc2c1=O [j, 1-Cyclopropyl-6-fluoro-7-(1-piperazinyl)-1,4-dihydro-4-oxoquinoline-3-carboxylic acid, reference compound] |  |  |  |  |  | 0.2 µg/mL (≈ 0.604 µM) | ≤ 0.05 µg/mL

Row | Structure (SMILES) | MIC (S. aureus FDA209P; [1]) | MIC (S. aureus F-597; [2]) | MIC (E. coli NIHJ JC-2; [3]) | MIC (S. aureus F-137; [4]) | LD50 (in vivo) | MIC (S. aureus F-597; 20 hours) | MIC (S. aureus FDA209P; S. aureus FDA209P, Mueller Hinton agar, 10^6 cells/plate, 37° C., 20 hours) | MIC (E. coli NIHJ JC-2; E. coli NIHJ JC-2, Mueller Hinton agar, 10^6 cells/plate, 37° C., 20 hours) | MIC (S. aureus F-137; Mueller Hinton agar) | MIC (S. aureus FDA209P; Staphylococcus aureus, FDA209P, 20 h) | MIC (E. coli NIHJ JC-2; Escherichia coli, NIHJJC2, 20 h)
8 | CC1NCc2cc(-c3ccc4c(=O)c(C(=O)O)cn(C5CC5)c4c3OC(F)F)ccc21 (racemic) [g, (±)-1-Cyclopropyl-8-difluoromethoxy-7-(1-methyliso-indolin-5-yl)-1,4-dihydro-4-oxoquinoline-3-carboxylic acid] | ≤ 0.05 µg/mL | 0.1 µg/mL (≈ 0.235 µM) | ≤ 0.05 µg/mL | ≤ 0.05 µg/mL | ≥ 200 mg/kg |  |  |  |  |  | 
9 | CC1NCc2cc(-c3ccc4c(=O)c(C(=O)O)cn(C5CC5)c4c3OC(F)F)ccc21 (single isomer, unassigned; (+)) [h, (+)-1-Cyclopropyl-8-difluoromethoxy-7-(1-methyliso-indolin-5-yl)-1,4-dihydro-4-oxoquinoline-3-carboxylic acid] | ≤ 0.05 µg/mL |  | ≤ 0.05 µg/mL | ≤ 0.05 µg/mL |  | 0.2 µg/mL (≈ 0.469 µM) |  |  |  |  | 
10 | O=C(O)c1cn(C2CC2)c2c(OC(F)F)c(-c3ccc4c(c3)CNC4)ccc2c1=O [e, 1-Cyclopropyl-8-difluoromethoxy-7-(isoindolin-5-yl)-1,4-dihydro-4-oxoquinoline-3-carboxylic acid] | ≤ 0.05 µg/mL | 0.1 µg/mL (≈ 0.242 µM) | ≤ 0.05 µg/mL | ≤ 0.05 µg/mL | ≥ 200 mg/kg |  |  |  |  |  | 
